{"source": "paper PMC5216056", "about": "(Nature Communications, 2017)", "key": {"human NAPE-PLD": {"target": "T1, human NAPE-PLD (Homo sapiens, UniProt Q6IQ20)", "T1 construct": "Full length human cDNA NAPE-PLD was obtained from Natsuo Ueda; expressed in transfected cells; host or cells: HEK293T (transient), membrane fraction", "T1 sequence (Q6IQ20 whole entry)": "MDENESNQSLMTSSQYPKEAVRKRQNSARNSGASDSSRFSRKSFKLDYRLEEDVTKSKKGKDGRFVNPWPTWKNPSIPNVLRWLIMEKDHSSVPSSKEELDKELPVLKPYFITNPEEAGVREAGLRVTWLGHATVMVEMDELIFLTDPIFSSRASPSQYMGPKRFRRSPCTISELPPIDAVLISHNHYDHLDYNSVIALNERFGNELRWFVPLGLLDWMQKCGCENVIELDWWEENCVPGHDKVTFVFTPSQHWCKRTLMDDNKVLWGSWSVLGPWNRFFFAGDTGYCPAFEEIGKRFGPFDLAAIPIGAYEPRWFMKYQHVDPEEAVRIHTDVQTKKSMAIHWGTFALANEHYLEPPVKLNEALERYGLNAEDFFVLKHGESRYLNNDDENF", "assay": "NAPE-PLD inhibition", "format": "biochemical", "details": "for inhibition at 10 µM: read-out: NAPE-PLD % inhibition at 10 µM ± SD", "experimental": "Full length human cDNA NAPE-PLD was obtained from Natsuo Ueda[58] and cloned into mammalian expression vector pcDNA3.1, containing a C-terminal Flag-tag and genes for ampicillin and neomycin resistance. All plasmids were grown in XL-10 Z-competent cells and prepped (Maxi Prep, Qiagen). Sequence analysis for the confirmation of the sequences was performed at the Leiden Genome Technology Centre.\nHEK293T cells (source: Dutch Cancer Institute) were cultured at 37 °C and 7% CO2 in DMEM with glutamax, penicillin (100 μg ml^−1), streptomycin (100 μg ml^−1) and 10% New Born Calf Serum iron supplemented (Hyclone SH30072.03). Cells were passaged twice a week to appropriate confluence. Twenty-four hours before transfection 10^7 cells were seeded on a 15 cm dish. Two hours before transfection, the medium was refreshed. Transfection is performed with PEI in a ratio of 3:1 with human NAPE-PLD or Mock pcDNA3.1Neo, 20 μg per dish. Medium is refreshed after 24 h and cells are harvested after 72 h. Cell suspensions are centrifuged at 1,000g for 10 min, supernatant removed and pellets frozen at −80 °C until further use.\nCell pellets are re-suspended in lysis buffer 1: 20 mM Hepes, 2 mM DTT, 0.25 M sucrose, 1 mM MgCl2, 2.5 U ml^−1 benzonase and incubated 30 min on ice. The cytosolic fraction (supernatant) is separated from the membranes by ultra-centrifugation (32,000 rpm for 30 min 100,000g). The pellet is resuspended in buffer 2: 20 mM Hepes, 2 mM DTT (membrane fraction). All samples are stored at −80 °C. Enzyme concentrations are determined using a Bradford assay.\nThe membrane protein fraction from transient overexpression of NAPE-PLD in HEK293T cells was diluted to 0.4 mg ml^−1 in assay buffer: 50 mM Tris-HCl (pH 7.5), 0.02% Triton X-100, 150 mM NaCl (ref. [60]). […] Relevant concentrations of compounds are prepared in DMSO. The assay is performed in a dark Greiner 96-well plate, end volume 100 μl. The compound or DMSO is incubated with membrane protein lysate (final concentration 0.04 mg ml^−1) for 30 min at 37 °C. A sample without membrane protein lysate is incorporated for background subtraction. Then, substrate is added (final concentration 1 μM) and the measurement is started immediately on a TECAN infinite M1000 pro at 37 °C (excitation 485 nm, emission 535 nm), scanning every 2 min for 1 h."}, "5-HT2B (h)": {"target": "T2, 5-HT2B (h) (Homo sapiens, UniProt P41595)", "T2 construct": "CEREP (contract assay)", "T2 sequence (P41595 whole entry)": "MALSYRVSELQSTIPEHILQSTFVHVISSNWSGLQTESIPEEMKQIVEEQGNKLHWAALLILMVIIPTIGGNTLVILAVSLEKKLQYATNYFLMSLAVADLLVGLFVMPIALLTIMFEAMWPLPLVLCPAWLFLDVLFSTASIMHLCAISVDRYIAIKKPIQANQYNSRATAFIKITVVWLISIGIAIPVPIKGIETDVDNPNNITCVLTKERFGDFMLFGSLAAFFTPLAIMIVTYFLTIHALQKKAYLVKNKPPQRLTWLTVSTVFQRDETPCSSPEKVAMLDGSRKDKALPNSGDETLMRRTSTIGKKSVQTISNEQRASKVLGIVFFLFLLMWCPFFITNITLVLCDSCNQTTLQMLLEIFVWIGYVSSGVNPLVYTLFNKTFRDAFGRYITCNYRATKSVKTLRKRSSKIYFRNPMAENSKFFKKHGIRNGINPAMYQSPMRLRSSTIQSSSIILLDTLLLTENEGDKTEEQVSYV", "assay": "CEREP panel", "format": "binding", "details": "for inhibition at 10 µM: read-out: % inhibition 5-HT2B (h)"}}, "note": "Read-outs that look alike come from different tables or passages of the source.", "data": [{"compound": "CCCCCCC(C)(C)c1cc(OC)c([C@@H]2C=C(CO)[C@@H]3C[C@H]2C3(C)C)c(OC)c1", "note": "[HU308]", "values": [{"measurement": "inhibition at 10 µM", "setting": "human NAPE-PLD", "value": "2 ± 7", "unit": "%"}, {"measurement": "inhibition at 10 µM", "setting": "5-HT2B (h)", "value": 28, "unit": "%"}]}, {"compound": "CCCn1c(C)c(C(=O)c2cccc3ccccc23)c2ccccc21", "note": "[JWH015]", "values": [{"measurement": "NAPE-PLD % inhibition at 10 µM ± SD", "setting": "human NAPE-PLD", "value": "-4 ± 12", "unit": "%"}, {"measurement": "% inhibition 5-HT2B (h)", "setting": "5-HT2B (h); 10 µM", "value": 94, "unit": "%"}]}, {"compound": "Cc1c(C(=O)NN2CCCCC2)nn(-c2ccc(Cl)cc2Cl)c1-c1ccc(I)cc1", "note": "[AM251]", "values": [{"measurement": "NAPE-PLD % inhibition at 10 µM ± SD", "setting": "human NAPE-PLD", "value": "10 ± 12", "unit": "%"}, {"measurement": "% inhibition 5-HT2B (h)", "setting": "5-HT2B (h); 10 µM", "value": 28, "unit": "%"}]}, {"compound": "CCCCCCC(C)(C)c1cc(OC)c(C2=C[C@H]3CC[C@]2(CO)C3(C)C)c(OC)c1", "note": "[HU910]", "values": [{"measurement": "NAPE-PLD % inhibition at 10 µM ± SD", "setting": "human NAPE-PLD", "value": "8 ± 13", "unit": "%"}, {"measurement": "% inhibition 5-HT2B (h)", "setting": "5-HT2B (h); 10 µM", "value": 87, "unit": "%"}]}, {"compound": "CCCC(C)(C)c1ccc2c(c1)OC(C)(C)[C@@H]1CC=C(C)C[C@@H]21", "note": "[JWH133]", "values": [{"measurement": "NAPE-PLD % inhibition at 10 µM ± SD", "setting": "human NAPE-PLD", "value": "3 ± 4", "unit": "%"}, {"measurement": "% inhibition 5-HT2B (h)", "setting": "5-HT2B (h); 10 µM", "value": 3, "unit": "%"}]}, {"compound": "CN1CCCCC1Cn1cc(C(=O)c2cc([N+](=O)[O-])ccc2I)c2ccccc21", "note": "(racemic) [(rac)-AM1241]", "values": [{"measurement": "NAPE-PLD % inhibition at 10 µM ± SD", "setting": "human NAPE-PLD", "value": "29 ± 11", "unit": "%"}]}, {"compound": "CN1CCCC[C@H]1Cn1cc(C(=O)c2cc([N+](=O)[O-])ccc2I)c2ccccc21", "note": "[(S)-AM1241]", "values": [{"measurement": "NAPE-PLD % inhibition at 10 µM ± SD", "setting": "human NAPE-PLD", "value": "33 ± 7", "unit": "%"}, {"measurement": "% inhibition 5-HT2B (h)", "setting": "5-HT2B (h); 10 µM", "value": 93, "unit": "%"}]}, {"compound": "SR144528", "values": [{"measurement": "NAPE-PLD % inhibition at 10 µM ± SD", "setting": "human NAPE-PLD", "value": "8 ± 10", "unit": "%"}, {"measurement": "% inhibition 5-HT2B (h)", "setting": "5-HT2B (h); 10 µM", "value": 22, "unit": "%"}]}, {"compound": "Cc1ccc2c(c1)Cc1c(C(=O)NN3CCCCC3)nn(-c3ccc(Cl)cc3Cl)c1-2", "note": "[Gp-1a]", "values": [{"measurement": "NAPE-PLD % inhibition at 10 µM ± SD", "setting": "human NAPE-PLD", "value": "3 ± 5", "unit": "%"}, {"measurement": "% inhibition 5-HT2B (h)", "setting": "5-HT2B (h); 10 µM", "value": 29, "unit": "%"}]}, {"compound": "CCCCC/C=C\\C/C=C\\C/C=C\\C/C=C\\CCCC(=O)OC(CO)CO", "note": "[2-AG, 2-arachidonoyl glycerol]", "values": [{"measurement": "inhibition at 10 µM", "setting": "human NAPE-PLD", "value": "-1 ± 12", "unit": "%"}]}, {"compound": "CN1CCCC[C@@H]1Cn1cc(C(=O)c2cc([N+](=O)[O-])ccc2I)c2ccccc21", "note": "[(R)-AM1241]", "values": [{"measurement": "NAPE-PLD % inhibition at 10 µM ± SD", "setting": "human NAPE-PLD", "value": "21 ± 5", "unit": "%"}]}, {"compound": "Cc1c(C(=O)c2cccc3ccccc23)c2cccc3c2n1[C@H](CN1CCOCC1)CO3", "note": "[WIN55212-2]", "values": [{"measurement": "NAPE-PLD % inhibition at 10 µM ± SD", "setting": "human NAPE-PLD", "value": "8 ± 6", "unit": "%"}, {"measurement": "% inhibition 5-HT2B (h)", "setting": "5-HT2B (h); 10 µM", "value": 70, "unit": "%"}]}, {"compound": "CCCCC/C=C\\C/C=C\\C/C=C\\C/C=C\\CCCC(=O)NCCO", "note": "[Anandamide, N-arachidonoylethanolamine]", "values": [{"measurement": "inhibition at 10 µM", "setting": "human NAPE-PLD", "value": "17 ± 9", "unit": "%"}]}, {"compound": "COc1ccc(C(=O)c2c(C)n(CCN3CCOCC3)c3cc(I)ccc23)cc1", "note": "[AM630]", "values": [{"measurement": "NAPE-PLD % inhibition at 10 µM ± SD", "setting": "human NAPE-PLD", "value": "-4 ± 11", "unit": "%"}, {"measurement": "% inhibition 5-HT2B (h)", "setting": "5-HT2B (h); 10 µM", "value": 65, "unit": "%"}]}, {"compound": "Cc1c(C(=O)NN2CCCCC2)nn(-c2ccc(Cl)cc2Cl)c1-c1ccc(Cl)cc1", "note": "[SR141716A]", "values": [{"measurement": "inhibition at 10 µM", "setting": "human NAPE-PLD", "value": 0, "unit": "%"}, {"measurement": "inhibition at 10 µM", "setting": "5-HT2B (h); 10 µM", "value": 16, "unit": "%"}]}, {"compound": "CCCCCCC(C)(C)c1ccc([C@@H]2C[C@H](O)CC[C@H]2CCCO)c(O)c1", "note": "[CP55940]", "values": [{"measurement": "inhibition at 10 µM", "setting": "human NAPE-PLD", "value": "10 ± 8", "unit": "%"}, {"measurement": "inhibition at 10 µM", "setting": "5-HT2B (h); 10 µM", "value": 96, "unit": "%"}]}]}
